The text below walks through data of ChEMBL document CHEMBL1201862, “PubChem BioAssay data set” (2004).

Holding throughout (experiment): NCI-60 cell line screen, 48 h
The test system of test [1] is HCC 2998.
Test [2] deals with A549.
Test [3] has as its system EKVX.
Test [4] concerns HCT-15.
The subject of test [5] is UO-31.
Test [6] concerns OVCAR-4.
Test [7] deals with MOLT-4.
The subject of test [8] is HCT-116.
In test [9] the test system is 786-0.
Test [10] concerns IGROV-1.
For test [11], the system named is NCI-H522.
For test [12], the system named is SF-539.
In test [13] the test system is RPMI-8226.
The subject of test [14] is LOX IMVI.

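Test compounds were applied to cells in 96-well plates for 48 hours at 5 doses. At the GI50, growth is halved.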 Activity calls are given as the source filed them. Cut-off read from the data, not from the text of the source: active = GI50 up to about 1.1 µM and inactive = higher. Some results are limits rather than exact numbers.

As for `CCc1cc2c(O)c(c1)Cc1cc(CC)cc(c1O)Cc1cc(CC)cc(c1O)Cc1cc(CC)cc(c1O)Cc1cc(CC)cc(c1O)Cc1cc(CC)cc(c1O)Cc1cc(CC)cc(c1O)C2`, the GI50 in [1] is > 100 µM (inactive); in test [2], > 100 µM (inactive); in test [3], > 100 µM (inactive); in test [4] it was greater than 100 µM; in test [5] it was > 100 µM (inactive); in test [6], > 100 µM (inactive). Further, the GI50 is 78.2 µM (inactive) in [7]; > 100 µM (inactive) in test [8]; > 100 µM (inactive) in test [9]; > 100 µM (inactive) in [10]; > 100 µM (inactive) in test [11]; > 100 µM (inactive) in test [12]. For the same compound, the GI50 in [13] is > 100 µM (inactive).
Turning to `CCc1nc2c([nH]1)C(=O)c1ccccc1C2=O`, the GI50 in test [1] is 31.8 µM (inactive); in test [2] it was 52.8 µM (inactive); in test [3] it was 94.4 µM (inactive); in test [4], 51.3 µM; in [5] it was 80.9 µM (inactive); in test [6] it was 58.7 µM (inactive). The GI50 is 46.3 µM (inactive) in [7]; 27.2 µM (inactive) in test [8]; 61.4 µM (inactive) in test [9]; 33.5 µM (inactive) in test [11]; 48.9 µM (inactive) in test [12].
`Cc1ccccc1C1OC(=O)c2ccc3ccccc3c21` (stereo unspecified): the GI50 in test [1] was 4 µM (inactive); in test [2], 5.48 µM (inactive); in test [3], 7.4 µM (inactive); in test [4] it was 2.93 µM; in [5], 2.77 µM (inactive); in [6], 9.51 µM (inactive). The GI50 in test [7] was 2.23 µM (inactive); in [8] it was 2.52 µM (inactive); in test [14], 2.57 µM (inactive); in [9] it was 4.57 µM (inactive); in test [10], 5 µM (inactive); in [11] it was 1.82 µM (inactive). In addition, the GI50 in [12] was 3.27 µM (inactive); in test [13], 1.61 µM (inactive).
For `O=C(Nc1ccccc1Cl)c1ccc([N+](=O)[O-])cc1`, the GI50 is > 100 µM (inactive) in test [1]; > 100 µM (inactive) in test [2]; 76.4 µM (inactive) in [3]; greater than 100 µM in [4]; > 100 µM (inactive) in test [5]; > 100 µM (inactive) in test [7]. The GI50 in test [14] was > 100 µM (inactive); in test [9], 45.7 µM (inactive); in test [10], > 100 µM (inactive); in test [11], > 100 µM (inactive); in test [12], 64.3 µM (inactive); in test [13], > 100 µM (inactive).
Regarding `CC1=C(C)CC2(CCCCC2=O)[S+]([O-])C1` (stereo unspecified), the GI50 in [1] is > 100 µM (inactive); in test [2] it was > 100 µM (inactive); in [3] it was > 100 µM (inactive); in test [4] it was greater than 100 µM; in [5], > 100 µM (inactive); in test [6], > 100 µM (inactive). Further, the GI50 in test [7], in test [8], in test [14], in [9], in test [10] and in [12] was > 100 µM (inactive) in each case. The GI50 in [13] is > 100 µM (inactive).
As for `COc1ccc(-c2oc3cc(O)c(OC)c(O)c3c(=O)c2OC2OC(CO)C(O)C(O)C2O)cc1` (stereo unspecified), the GI50 in test [1] was > 100 µM (inactive); in test [2], > 100 µM (inactive); in [3], > 100 µM (inactive); in [4], greater than 100 µM; in test [5] it was 82 µM (inactive); in test [6], > 100 µM (inactive). Also, the GI50 in test [7], in [8], in test [14], in test [9], in [10] and in [12] was > 100 µM (inactive) each time. For the same compound, the GI50 in [13] is 21.2 µM (inactive).
Take `Cc1ccc(Nc2cccc3c2C(=O)c2cccc(Nc4ccc(C)cc4S(=O)(=O)O)c2C3=O)c(S(=O)(=O)O)c1`: the GI50 in test [1] was > 100 µM (inactive); in [2] it was > 100 µM (inactive); in test [3], > 100 µM (inactive); in test [4] it was greater than 100 µM; in [5] it was > 100 µM (inactive); in [6] it was > 100 µM (inactive). Further, the GI50 in test [7], in test [8], in [9], in test [10], in test [11] and in test [12] was > 100 µM (inactive) each time. In test [13], the GI50 was > 100 µM (inactive).
On to `C[n+]1c2ccccc2c(NC(CCC(N)=O)C(=O)O)c2ccccc21` (stereo unspecified), for which the GI50 in test [1] is > 100 µM (inactive); in test [2], > 100 µM (inactive); in [3], > 100 µM (inactive); in test [4], greater than 100 µM; in test [5] it was > 100 µM (inactive); in test [6], > 100 µM (inactive). Also, the GI50 in test [7], in test [8], in test [9], in test [10], in test [11] and in test [12] was > 100 µM (inactive) throughout. Also, the GI50 in test [13] is 21 µM (inactive).
As for `C[Si](C)(C)/C(Br)=C\CCN1C(=O)CCC1O` (stereo unspecified), the GI50 is > 100 µM (inactive) in test [2]; > 100 µM (inactive) in test [3]; greater than 100 µM in [4]; > 100 µM (inactive) in test [5]; > 100 µM (inactive) in test [6]; > 100 µM (inactive) in test [7]. Moreover, the GI50 is > 100 µM (inactive) in [8]; > 100 µM (inactive) in [14]; > 100 µM (inactive) in test [9]; > 100 µM (inactive) in [10]; 71.9 µM (inactive) in test [11]; > 100 µM (inactive) in test [12]. In addition, the GI50 in test [13] was > 100 µM (inactive).
As to `CC1C=CC(O)[C@]2(CO)CC3(CCC12)OCCO3` (stereo partly specified), the GI50 in test [1], in test [2], in test [3], in test [5], in test [6] and in test [7] was > 100 µM (inactive) throughout. In addition, the GI50 in [8], in test [9], in test [10], in test [11] and in test [12] was > 100 µM (inactive) each time.
For `N=C(N)NS(=O)(=O)c1ccc(NC(=O)c2cccc3c(Nc4ccc(S(N)(=O)=O)cc4)c4ccccc4nc23)cc1`, the GI50 is > 100 µM (inactive) in test [1]; > 100 µM (inactive) in [2]; > 100 µM (inactive) in test [3]; greater than 100 µM in test [4]; > 100 µM (inactive) in [5]; > 100 µM (inactive) in test [6]. In addition, the GI50 in test [7], in test [14], in [9], in test [10], in test [11] and in [12] was > 100 µM (inactive) each time. Besides, the GI50 in [13] was > 100 µM (inactive).
In the case of `CCCCCCCC(=O)OCC(C[As](=O)(O)O)OC(=O)CCCCCCC` (stereo unspecified), the GI50 in test [1] is 17.7 µM (inactive); in [2] it was 23 µM (inactive); in test [3], 18.3 µM (inactive); in test [4], 14.9 µM; in test [5], 15 µM (inactive); in [6] it was 19.7 µM (inactive). Also, the GI50 in test [7] is 16.6 µM (inactive); in test [8], 16.7 µM (inactive); in test [9], 17.2 µM (inactive); in test [10], 13.8 µM (inactive); in test [11] it was 13.3 µM (inactive); in test [12] it was 14.1 µM (inactive). In test [13], the GI50 was 17.6 µM (inactive).
`CCOC(=O)N1C2C=C(C)C(C3C(C)C(=O)N31)N(C(=O)c1ccccc1)O2` (stereo unspecified): the GI50 in test [1] is > 100 µM (inactive); in test [2], > 100 µM (inactive); in test [3], > 100 µM (inactive); in [4], greater than 100 µM; in [5], > 100 µM (inactive); in [6], > 100 µM (inactive). Further, the GI50 in test [7], in test [8], in test [14], in [9], in [10] and in [12] was > 100 µM (inactive) throughout. Besides, the GI50 in test [13] is > 100 µM (inactive).
Take `NC(CNc1ccc(O)cc1)C(=O)O` (stereo unspecified): the GI50 is > 100 µM (inactive) in test [2]; > 100 µM (inactive) in [3]; greater than 100 µM in test [4]; > 100 µM (inactive) in [5]; 17.4 µM (inactive) in [6]; > 100 µM (inactive) in [7]. In addition, the GI50 was > 100 µM (inactive) in test [8]; 60.8 µM (inactive) in [14]; 16 µM (inactive) in [9]; > 100 µM (inactive) in test [11]; > 100 µM (inactive) in [13].
Turning to `C[C@H]1CC[P+](C)(c2ccccc2)C1` (stereo partly specified), the GI50 is > 100 µM (inactive) in test [1]; > 100 µM (inactive) in [2]; > 100 µM (inactive) in [3]; greater than 100 µM in test [4]; > 100 µM (inactive) in [5]; > 100 µM (inactive) in [7]. Besides, the GI50 in test [8], in test [14], in [9], in test [10], in [11] and in test [12] was > 100 µM (inactive) each time. Moreover, the GI50 in test [13] was > 100 µM (inactive).
`CCOC(=O)Cn1c2ccccc2c(=O)c2cc(C)c(C)c(C#N)c21`: the GI50 is > 100 µM (inactive) in [1]; > 100 µM (inactive) in test [2]; > 100 µM (inactive) in test [3]; greater than 100 µM in test [4]; 68.5 µM (inactive) in test [5]; > 100 µM (inactive) in test [7]. Besides, the GI50 is 53.5 µM (inactive) in [8]; > 100 µM (inactive) in [14]; > 100 µM (inactive) in test [9]; > 100 µM (inactive) in test [10]; > 100 µM (inactive) in [12]; > 100 µM (inactive) in test [13].
